Drawing on patent US6620839B2, “1,3-disubstituted and 1,3,3-trisubstituted pyrrolidines as histamine-3 receptor ligands and their therapeutic applications” (Abbott Laboratories, priority 2000, dated 2003), this text covers Ki for 19 compounds.

This test concerns the target T1, histamine-3 receptor (Rattus norvegicus, UniProt Q9QYN8).
T1 construct: from tissue; host or cells: male Sprague-Dawley rat brain cortex membranes
Briefly: Histamine-3 receptor binding, (3H)-N-α-methylhistamine displacement in rat cortical membranes. The conditions noted are these: male Sprague-Dawley rat brain cortical membranes; (3H)-N-α-methylhistamine ~0.6 nM; 30 minutes at 25° C.; Cheng-Prusoff. A digest of the protocol: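 Male Sprague-Dawley rat cortical membranes incubated 30 min at 25 °C with compound dilutions and [3H]-N-α-methylhistamine. Nonspecific binding defined with 3 μM thioperamide. Filtration and scintillation counting used; Ki from Hill transformation and Cheng-Prusoff equation.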

T1 sequence (Q9QYN8 whole entry): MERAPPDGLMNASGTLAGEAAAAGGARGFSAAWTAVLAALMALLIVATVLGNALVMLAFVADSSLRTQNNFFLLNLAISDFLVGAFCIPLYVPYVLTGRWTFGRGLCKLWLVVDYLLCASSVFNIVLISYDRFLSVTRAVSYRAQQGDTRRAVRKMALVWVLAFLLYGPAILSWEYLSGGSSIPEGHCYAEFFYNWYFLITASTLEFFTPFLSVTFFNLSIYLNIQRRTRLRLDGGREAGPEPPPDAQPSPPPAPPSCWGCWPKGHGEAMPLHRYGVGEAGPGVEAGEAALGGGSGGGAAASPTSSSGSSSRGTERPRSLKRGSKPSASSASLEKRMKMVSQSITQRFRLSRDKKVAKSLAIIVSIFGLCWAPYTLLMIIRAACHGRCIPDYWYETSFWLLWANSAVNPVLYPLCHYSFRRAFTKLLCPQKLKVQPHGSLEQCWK

For `CN(C(=O)c1ccc(C#N)cc1)[C@@H]1CCN(CCCOc2ccc(-c3ccc(C#N)cc3)cc2)C1` [Example 120, 4-cyano-N-((3R)-1-{3-[(4′-cyano[1,1′-biphenyl]-4-yl)oxy]propyl}pyrrolidinyl)-N-methylbenzamide], affinity was put at a Ki of 10 nM.
For `Cn1cnc(S(=O)(=O)N[C@@H]2CCN(CCCOc3ccc(-c4ccc(C#N)cc4)cc3)C2)c1` [Example 35] the value was 13 nM.
`CC(C)c1ccc(S(=O)(=O)N[C@@H]2CCN(CCCOc3ccc(-c4ccc(C#N)cc4)cc3)C2)cc1` [Example 28] displayed a Ki of 16 nM.
`N#Cc1ccc(-c2ccc(OCCCN3CC[C@@H](NC(=O)c4ccc(F)cc4)C3)cc2)cc1` [Example 139] came in with a Ki of 288 nM.
The figure for `O=C(N[C@@H]1CCN(CCCOc2ccc(C(=O)C3CC3)cc2)C1)c1csc(-c2cccnc2)n1` [Example 13, N-((3R)-1-{3-[4-(cyclopropylcarbonyl)phenoxy]propyl}pyrrolidinyl)-2-(3-pyridinyl)-1,3-thiazole-4-carboxamide] is 50 nM.
In turn, `CN(C)S(=O)(=O)N[C@@H]1CCN(CCCOc2ccc(-c3ccc(C#N)cc3)cc2)C1` [Example 145] came in with a Ki of 9.6 nM.
For `N#Cc1ccc(-c2ccc(OCCCN3CC[C@@H](NS(=O)(=O)c4ccccc4C#N)C3)cc2)cc1` [Example 46, 2-cyano-N-((3R)-1-{3-[(4′-cyano[1,1′-biphenyl]-4-yl)oxy]propyl}pyrrolidinyl)benzenesulfonamide], the affinity corresponds to a Ki of 103 nM.
For `O=C(c1ccc(OCCCN2CC[C@@H](NS(=O)(=O)c3cccc(F)c3)C2)cc1)C1CC1` [Example 93, N-((3R)-1-{3-[4-(cyclopropylcarbonyl)phenoxy]propyl}pyrrolidinyl)-3-fluorobenzenesulfonamide] the value was 3.2 nM; for `Cc1cc(C#N)ccc1-c1ccc(OCCCN2CC[C@@H](N(C)C)C2)cc1` [Example 165, 4′-{3-[(3R)-3-(dimethylamino)-1-pyrrolidinyl]propoxy}-2-methyl-1,1′-biphenyl-4-carbonitrile], 17 nM; for `N#Cc1ccccc1S(=O)(=O)N[C@@H]1CCN(CCCOc2ccc(C(=O)C3CC3)cc2)C1` [Example 90, 2-cyano-N-((3R)-1-{3-[4-(cyclopropylcarbonyl)phenoxy]propyl}pyrrolidinyl)benzenesulfonamide], 11 nM.
As to `N#Cc1ccc(-c2ccc(OCCCN3CC[C@@H](NS(=O)(=O)c4ccccc4Cl)C3)cc2)cc1` [Example 30, 2-chloro-N-((3R)-1-{3-[(4′-cyano[1,1′-biphenyl]-4-yl)oxy]propyl}pyrrolidinyl)benzenesulfonamide], the affinity corresponds to a Ki of 10 nM.
For `N#Cc1cccc(S(=O)(=O)N[C@@H]2CCN(CCCOc3ccc(-c4ccccn4)cc3)C2)c1` [Example 104, 3-cyano-N-((3R)-1-{3-[4-(2-pyridinyl)phenoxy]propyl}pyrrolidinyl)benzenesulfonamide] the value was 173 nM.
Regarding `N#Cc1ccc(-c2ccc(OCCCN3CC[C@@H](NS(=O)(=O)c4cccs4)C3)cc2)cc1` [Example 36], the Ki was determined as 12 nM.
Regarding `CN(C)C(=O)N(C)[C@@H]1CCN(CCCOc2ccc(-c3ccc(C#N)cc3)cc2)C1` [Example 115, N-((3R)-1-{3-[(4′-cyano[1,1′-biphenyl]-4-yl)oxy]propyl}pyrrolidinyl)-N,N,′N′-trimethylurea], affinity was put at a Ki of 21 nM.
The figure for `CC(C)S(=O)(=O)N[C@@H]1CCN(CCCOc2ccc(C(=O)C3CC3)cc2)C1` [Example 12, N-((3R)-1-{3-[4-(cyclopropylcarbonyl)phenoxy]propyl}pyrrolidinyl)-2-propanesulfonamide] is 71 nM; for `Cc1ccc(S(=O)(=O)N[C@@H]2CCN(CCCOc3ccc(C(=O)C4CC4)cc3)C2)cc1` [Example 61, N-((3R)-1-{3-[4-(cyclopropylcarbonyl)phenoxy]propyl}pyrrolidinyl)-4-methylbenzenesulfonamide] it is 4.2 nM; for `Cc1cc(OCCCN2CC[C@@H](N(C)C)C2)ccc1-c1ccc(C#N)cc1` [Example 170, 4′-{3-[(3R)-3-(dimethylamino)-1-pyrrolidinyl]propoxy}-2′-methyl-1,1′-biphenyl-4-carbonitrile] it is 51 nM.
For “N-{(3R)-1-[3-(4-acetylphenoxy)propyl]pyrrolidinyl}-4-(trifluoromethoxy)benzenesulfonamide [Example 73]” the value was 6.4 nM.
The compound `N#Cc1ccc(-c2ccc(OCCCN3CC[C@@H](NC(=O)c4ccco4)C3)cc2)cc1` [Example 142] displayed a Ki of 321 nM.

As usually defined, the Ki is a measure of affinity in units of concentration, obtained from inhibition or displacement.
